# Experimental data: patent publication US20100189683A1, “Pulsatile Dosing of Gossypol for Treatment of Disease” (Ascenta Therapeutics, Inc., priority 2008, published 2010)
# Marks after values point to notes of the source that are not given here.
# Tested on: patients with advanced cancer
# Test: Clinical efficacy (stable disease for 60 days or more) of (−)-gossypol by dosing schedule
# Format: in vivo, human
# Procedure: Following (−)-gossypol administration to patients with advanced cancer, clinical efficacy (e.g., patients having stable disease for 60 days or more) was monitored according to the following dosing schedules: “Daily” dosing: 5 to 60 mg/day of (−)-gossypol on 21 days per 28 day cycle; “BID×3d” dosing: 30 to 80 mg BID of (−)-gossypol on 3 consecutive days (e.g., Monday-Tuesday-Wednesday) repeated every other week per 28 day cycle; and “Weekly” dosing: 80 to 200 mg of (−)-gossypol once weekly per 28 day cycle. […] Tumor types represented in this study included: non-small cell lung cancer, non-Hodgkin lymphoma, chronic lymphocytic leukemia/small lymphocytic lymphoma, colon cancer, breast cancer, small cell lung cancer, head and neck cancer, sarcoma, hepatocellular cancer, pancreatic cancer, esophageal cancer, cholangiocarcinoma, carcinoid/neuroendocrine cancer, Hodgkin's lymphoma, endometrial cancer, adrenal cancer, melanoma, gastrointestinal stromal tumor, renal cancer, bladder cancer, and ovarian cancer.
compound,measurement,setting,value
Cc1cc2c(C(C)C)c(O)c(O)c(C=O)c2c(O)c1-c1c(C)cc2c(C(C)C)c(O)c(O)c(C=O)c2c1O [(−)-gossypol],Median # (%) of patients with stable disease ≧60 days,"BID × 3 d, N = 21",6 (24) # (%)
same,Median duration of days of stable disease (range),"BID × 3 d, N = 21",180 (72-443) days
same,Median # (%) of patients with stable disease ≧60 days,"Daily, N = 38",6 (16) # (%)
same,Median duration of days of stable disease (range),"Daily, N = 38",82 (56-341) days
same,Median # (%) of patients with stable disease ≧60 days,"Weekly, N = 12",2 (13) # (%)
same,Median duration of days of stable disease (range),"Weekly, N = 12",69 (58-80) days
same,Median duration of days of stable disease,pulsatile dosing (BID×3d) as compared to continuous daily dosing,longer median duration of days of stable disease
